# Patent publication US9108947B2, “Inhibitors of the Renal Outer Medullary Potassium channel” (Merck Sharp & Dohme Corp., priority 2011, dated 2015)
# Read-outs that look alike come from different tables or passages of the source.
# What was measured:
# hROMK (hKir1.1) = hROMK (hKir1.1) (Homo sapiens (Human), UniProt P48048); experiment: Thallium Flux Assay (ROMK channel functional thallium flux, FLIPR-Tetra); assay type: cell-based; conditions: HEK293 cells stably expressing hROMK (hKir1.1); 30 min compound incubation
# Chain of hROMK (hKir1.1) (P48048 whole entry): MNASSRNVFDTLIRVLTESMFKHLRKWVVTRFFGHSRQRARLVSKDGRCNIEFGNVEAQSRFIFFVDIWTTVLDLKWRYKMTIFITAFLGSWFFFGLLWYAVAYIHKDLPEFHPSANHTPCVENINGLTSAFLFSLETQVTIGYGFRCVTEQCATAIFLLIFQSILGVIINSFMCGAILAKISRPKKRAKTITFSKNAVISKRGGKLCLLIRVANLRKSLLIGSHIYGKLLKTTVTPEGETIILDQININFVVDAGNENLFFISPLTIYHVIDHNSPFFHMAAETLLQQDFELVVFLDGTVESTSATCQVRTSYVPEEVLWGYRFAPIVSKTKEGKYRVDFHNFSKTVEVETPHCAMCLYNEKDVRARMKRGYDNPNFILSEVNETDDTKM
# Excerpt: (§1) Several assays may be used to measure functional inhibition of the ROMK channel by compounds of the instant invention. One assay that can be used is an electrophysiology assay that measures the electrical current that is generated as potassium permeates through the channel. Another ROMK functional assay makes use of the ability of thallium to permeate through open ROMK channels and increase the fluorescence of a dye previously loaded into the cells. Under control conditions, cells loaded with dye and exposed to thallium-containing medium display a time-dependent increase in fluorescence, the rate of which depends on number of functional channels. When cells are incubated in the presence of a channel inhibitor, the increase in fluorescence is attenuated in a concentration-dependent manner, and IC50 values of inhibition by compounds can be accurately determined. This assay has been established with cell lines expressing either human, or rat ROMK channels, and operates in 384-well format.
# HEK293 cells stably expressing hROMK (hKir1.1) were grown at 37° C. in a 10% CO2 humidified incubator in complete growth media: Dulbecco's Modified Eagle Medium supplemented with non-essential amino acids, Penicillin/Streptomycin/Glutamine, G418 and FBS. At >80% confluency, the media was aspirated from the flask and the sample was rinsed with 10 ml Calcium/Magnesium-free PBS. […] To dislodge the cell, the side of the flask was gently banged with a hand. The cells were triturated completely and then transferred to 25 ml complete media. The sample was then centrifuged at 1,500 rpm for 6 minutes, followed by resuspension in complete growth media and then cell concentration was determined. […] Under ideal growth conditions and appropriate tissue culture practices, this cell line is stable for 40-45 passages.
# • FluxOR™ Reagent (Component A) • FluxOR™ Assay Buffer (Component B)—10× Concentrate • PowerLoad™ Concentrate (Component C)—100× Concentrate • Probenecid (Component D) Lyophilized sample is kept at −20° C. Water soluble, 100× after solubilization in 1 ml water. […] Store at 4° C. • Thallium sulfate (Tl2SO4) Concentrate (Component G)—50 mM in water. […] Can be stored at room temperature • Stimulant Buffer (prepared at 5× final concentration in 1× FluxOR™Chloride-Free Buffer): 7.5 mM Thallium sulfate and 0.75 mM Potassium sulfate (to give a final assay concentration of 3 mM Thallium 0.3 mM Potassium). Store at 4° C. when not in use. If kept sterile, this solution is good for months. Assay Protocol—
# The ROMK channel functional thallium flux assay is performed in 384 wells, using the FLIPR-Tetra instrument. HEK-hKir1.1 cells are seeded in Poly-D-Lysine microplates and kept in a 37° C.-10% CO2 incubator overnight. On the day of the experiment, the growth media is replaced with the FluxOR™ reagent loading buffer and incubated, protected from light, at ambient temperature (23-25° C.) for 90 min. The loading buffer is replaced with assay buffer±test compound followed by 30 min incubation at ambient temperature, where the Thallium/Potassium stimulant is added to the microplate.
# • 1. Seed HEK-hKir1.1 cells (50 μl at 20,000 cells/well) in 384-well PDL coated Microplates • 2. Allow cells to adhere overnight in humidified 37° C./10% CO2 incubator • 3. Completely remove cell growth media from microplate and replace with 25 μl loading buffer • 4. Incubate Microplate at room temperature, protected form light, for 90 min • 5. Remove loading buffer and replace with 25 μl 1× Assay Buffer±test compound. • 6. Incubate microplate at room temperature, protected form light, for 30 min • 7. […] Excitation=400 nm, Emission=460 & 580 nm. Collect data for 10 min. Data Calculation—
# The fluorescence intensity of wells containing 3 μM of a standard control ROMK inhibitor of the present invention is used to define the ROMK-sensitive component of thallium flux. Fluorescence in the presence of test compounds is normalized to control values to provide % fluorescence change.
# Kir1.1 (ROMK1) = Kir1.1 (ROMK1) (Homo sapiens (Human), UniProt P48048); experiment: Electrophysiology Assay (whole cell voltage clamp, IonWorks Quattro); assay type: cell-based
# Chain of Kir1.1 (ROMK1) (P48048 whole entry, species assumed): as the sequence (P48048 whole entry) above
# Excerpt: as §1
# Chinese hamster ovary cells stably expressing Kir1.1 channels were maintained in T-75 flasks in cell culture media in a humidified 10% CO2 incubator at 37° C. Prior to an experiment, Kir1.1 expression was induced by overnight incubation with 1 mM sodium butyrate. […] After centrifugation, the cell pellet was resuspended in approximately 4.0 ml of bath solution and placed in the IonWorks® instrument. The intracellular solution consisted of (in mM): 80 K gluconate, 40 KCl, 20 KF, 3.2 MgCl2, 3 EGTA, 5 Hepes, pH 7.4. Electrical access to the cytoplasm was achieved by perforation in 0.13 mg/ml amphotericin B for 4 minutes.
# Voltage protocols and current recordings were performed using the IonWorks® HT software/hardware system. Currents were sampled at 1 kHz. No correction for liquid junction potentials was used. The test pulse, consisting of a 100 ms step to 0 mV from a holding potential of −70 mV, followed by a 100 ms voltage ramp from −70 mV to +70 mV, was applied before and after a 6 minutes compound incubation period. Test compounds were prepared by diluting DMSO stock solutions into the bath solution at 3× the final concentration and placed in the instrument in 96-well polypropylene plates. Current amplitudes were measured using the IonWorks® software.
# [1] = Chinese hamster ovary cells stably expressing Kir1.1, block during voltage step to 0 mV, 6 minutes compound incubation, read-out: EP Assay IC50
SMILES,IC50 (hROMK (hKir1.1)),IC50 (Kir1.1 (ROMK1); [1]),IC50 (Kir1.1 (ROMK1))
"Cc1c([C@@H](O)CN2CC(CNS(=O)(=O)c3ccc(C#N)cc3)C2)ccc2c1COC2=O [Example 14, (R)-4-Cyano-N-((1-(2-hydroxy-2-(4-methyl-1-oxo-1,3-dihydroisobenzofuran-5-yl)ethyl)azetidin-3-yl)methyl)benzenesulfonamide]",122 nM,150 nM,–
"Cc1c([C@@H](O)CN2CC[C@@H](NS(=O)(=O)c3ccc(C#N)cc3)C2)ccc2c1COC2=O [Example 15, 4-Cyano-N—((R)-1-((R)-2-hydroxy-2-(4-methyl-1-oxo-1,3-dihydroisobenzofuran-5-yl)ethyl)pyrrolidin-3-yl)benzenesulfonamide]",639 nM,1390 nM,–
Cc1c([C@@H](O)CN2CCCC2CNc2ccc(C#N)cn2)ccc2c1COC2=O (some centres unmarked) [Example 18],534 nM,65 nM,–
"Cc1c([C@@H](O)CN2CCCC2CNS(=O)(=O)c2ccc(-n3cnnn3)cc2)ccc2c1COC2=O (stereo partly drawn) [Example 19, N-((1-((R)-2-Hydroxy-2-(4-methyl-1-oxo-1,3-dihydroisobenzofuran-5-yl)ethyl)pyrrolidin-2-yl)methyl)-4-(1H-tetrazol-1-yl)benzenesulfonamide]",206 nM,245 nM,–
"Cc1c([C@@H](O)CNC2CCCN(c3ccc(C#N)cn3)C2)ccc2c1COC2=O (stereo partly drawn) [Example 20, 6-(3-((R)-2-Hydroxy-2-(4-methyl-1-oxo-1,3-dihydroisobenzofuran-5-yl)ethylamino)piperidin-1-yl)nicotinonitrile]",265 nM,–,52 nM
"Cc1c([C@@H](O)CN2CCC(C)(CNc3ccc(C#N)cn3)C2)ccc2c1COC2=O (stereo partly drawn) [Example 21, 6-((1-((R)-2-Hydroxy-2-(4-methyl-1-oxo-1,3-dihydroisobenzofuran-5-yl)ethyl)-3-methylpyrrolidin-3-yl)methylamino)nicotinonitrile]",547 nM,103 nM,–
"Cc1c([C@@H](O)CN2CCC(CNc3ccc(C#N)cn3)(c3ccccc3)C2)ccc2c1COC2=O (stereo partly drawn) [Example 22, 6-((1-((R)-2-Hydroxy-2-(4-methyl-1-oxo-1,3-dihydroisobenzofuran-5-yl)ethyl)-3-phenylpyrrolidin-3-yl)methylamino)nicotinonitrile]",808 nM,340 nM,–
